From US11312704B2, “Inhibitors of cysteine proteases and methods of use thereof” (priority 2020, dated 2022)

Test system: HCoV 229E
Assay: HCoV 229E cytopathic effect (CPE) assay
Assay type: cell-based, Human Coronavirus (HCov) 229E
Settings: CellTiter Glo
Protocol: The antiviral activity of compounds was calculated based on the protection of the virus-induced CPE at each concentration normalized by the virus control.
Reagents and instruments used in this assay include luminescent cell viability assay kit CellTiter Glo (Promega) and Microplate Reader Synergy2 (BioTek).
Cytopathic effect (CPE) was measured by CellTiter Glo following the manufacturer's manual. The antiviral activity of compounds was calculated based on the protection of the virus-induced CPE at each concentration normalized by the virus control.

| SMILES | EC50 |
| --- | --- |
| COc1cccc2[nH]c(C(=O)N[C@@H](CC(C)C)C(=O)N[C@@H](C[C@@H]3CCNC3=O)C(O)C#N)cc12 (single isomer, unassigned) [134 (Isomer 1)] | < 2000 nM |
| COc1cccc2[nH]c(C(=O)N[C@@H](CC(C)C)C(=O)N[C@@H](C[C@@H]3CCNC3=O)C(C#N)NC(C)(C)C)cc12 (single isomer, unassigned) [323 (Isomer 1)] | < 2000 nM |
| COc1cccc2[nH]c(C(=O)N[C@@H](CC(C)C)C(=O)N[C@@H](C[C@@H]3CCNC3=O)C(C#N)N3CCCC3)cc12 (single isomer, unassigned) [331 (Isomer 1)] | < 2000 nM |
| COc1cccc2[nH]c(C(=O)N3C[C@H](c4ccccc4)C[C@H]3C(=O)N[C@@H](C[C@@H]3CCNC3=O)C(O)C#N)cc12 (single isomer, unassigned) [345 (Isomer 2)] | < 2000 nM |
| COc1cccc2[nH]c(C(=O)N3CC(C45CC(C4)C5)C[C@H]3C(=O)N[C@H](C#N)C[C@@H]3CCNC3=O)cc12 (single isomer, unassigned) [385 (Isomer 1)] | < 2000 nM |
| COc1cccc2[nH]c(C(=O)N3CC4(CCCCC4)CC3C(=O)N[C@H](C#N)C[C@@H]3CCNC3=O)cc12 (single isomer, unassigned) [389A (Isomer 1)] | < 2000 nM |
| COc1cccc2[nH]c(C(=O)N[C@@H](CC(C)C)C(=O)N[C@@H](C[C@@H]3CCNC3=O)C(C#N)NCc3ccccc3)cc12 (single isomer, unassigned) [507 (Isomer 1.1)] | < 2000 nM |
| COc1cccc2[nH]c(C(=O)N3CC4(CCCCC4)CC3C(=O)N[C@H](C#N)C[C@@H]3CCCNC3=O)cc12 (single isomer, unassigned) [681 (Isomer 1)] | < 2000 nM |
| COc1cccc2[nH]c(C(=O)N[C@@H](CC(C)C)C(=O)N[C@@H](C[C@@H]3CCNC3=O)C(O)C#N)cc12 (single isomer, unassigned; isomer 2) [135 (Isomer 2)] | < 2000 nM |
| COc1cccc2[nH]c(C(=O)N[C@@H](CC(C)C)C(=O)N[C@H](C#N)C[C@@H]3CCNC3=O)cc12 [Compound 101, N-[(1S)-1-[[(1S)-1-cyano-2-[(3S)-2-oxopyrrolidin-3-yl]ethyl]carbamoyl]-3-methyl-butyl]-4-methoxy-1H-indole-2-carboxamide] | < 2000 nM |
| CC(C)C[C@H](NC(=O)c1nc2ccccc2[nH]1)C(=O)N[C@H](C#N)C[C@@H]1CCNC1=O [Compound 103, N-[(1S)-1-[[(1S)-1-cyano-2-[(3S)-2-oxopyrrolidin-3-yl]ethyl]carbamoyl]-3-methyl-butyl]-1H-benzimidazole-2-carboxamide] | < 2000 nM |
| CC(C)C[C@H](NC(=O)c1nc2cccc(Cl)c2[nH]1)C(=O)N[C@H](C#N)C[C@@H]1CCNC1=O [Compound 133] | < 2000 nM |
| COc1cccc2[nH]c(C(=O)NC(CC(C)C)C(=O)NC(CC3CCNC3=O)C(O)C#N)cc12 [Compound 134, N-[(1S)-1-[[(1S)-2-cyano-2-hydroxy-1-[[(3S)-2-oxopyrrolidin-3-yl]methyl]ethyl]carbamoyl]-3-methyl-butyl]-4-methoxy-1H-indole-2-carboxamide] | < 2000 nM |
| COc1cccc2[nH]c(C(=O)N3C[C@H](c4ccccc4)C[C@H]3C(=O)N[C@H](C#N)C[C@@H]3CCNC3=O)cc12 [Compound 171] | < 2000 nM |
| COc1cccc2[nH]c(C(=O)N[C@@H](CC3CCCCC3)C(=O)N[C@H](C#N)C[C@@H]3CCNC3=O)cc12 [Compound 185, N-[(1S)-2-[[(1S)-1-cyano-2-[(3S)-2-oxopyrrolidin-3-yl]ethyl]amino]-1-(cyclohexylmethyl)-2-oxo-ethyl]-4-methoxy-1H-indole-2-carboxamide] | < 2000 nM |
| COc1cccc2[nH]c(C(=O)N3C[C@H]4C([C@H]3C(=O)N[C@H](C#N)C[C@@H]3CCNC3=O)C4(C)C)cc12 (stereo partly drawn) [Compound 197, (2S,5S)—N-[(1S)-1-cyano-2-[(3S)-2-oxopyrrolidin-3-yl]ethyl]-3-(4-methoxy-1H-indole-2-carbonyl)-6,6-dimethyl-3-azabicyclo[3.1.0]hexane-2-carboxamide] | < 2000 nM |
| COc1cccc2[nH]c(C(=O)N[C@@H](CC3CC3)C(=O)N[C@H](C#N)C[C@@H]3CCNC3=O)cc12 [Compound 205, N—((S)-1-(((S)-1-cyano-2-((S)-2-oxopyrrolidin-3-yl)ethyl)amino)-3-cyclopropyl-1-oxopropan-2-yl)-4-methoxy-1H-indole-2-carboxamide] | < 2000 nM |
| COc1cccc2[nH]c(C(=O)N[C@@H](CC(C)C)C(=O)N[C@@H](C[C@@H]3CCNC3=O)C(C#N)N[C@@H](C)c3ccccc3)cc12 (stereo partly drawn) [Compound 329] | < 2000 nM |
| COc1cccc2[nH]c(C(=O)N3C[C@H](c4ccccc4)CC3C(=O)N[C@H](C=O)C[C@@H]3CCNC3=O)cc12 (stereo partly drawn) [Compound 344A] | < 2000 nM |
| COc1cccc2[nH]c(C(=O)N[C@@H](CC(C)C)C(=O)N[C@@H](C[C@@H]3CCNC3=O)C(N)C#N)cc12 (stereo partly drawn) [Compound 344C, N-[(1S)-1-[[(1S)-2-amino-2-cyano-1-[[(3S)-2-oxopyrrolidin-3-yl]methyl]ethyl]carbamoyl]-3-methyl-butyl]-4-methoxy-1H-indole-2-carboxamide] | < 2000 nM |
| COc1cccc2[nH]c(C(=O)N3C[C@H](c4ccccc4)C[C@H]3C(=O)N[C@@H](C[C@@H]3CCNC3=O)C(O)C#N)cc12 (stereo partly drawn) [Compound 345] | < 2000 nM |

| SMILES | EC50 |
| --- | --- |
| CC(C)C[C@H](NC(=O)c1cc2c(OC(F)(F)F)cccc2[nH]1)C(=O)N[C@H](C#N)C[C@@H]1CCNC1=O [Compound 361] | < 2000 nM |
| CC(C)C[C@H](NC(=O)c1nc2c(OC(F)(F)F)cccc2[nH]1)C(=O)N[C@H](C#N)C[C@@H]1CCNC1=O [Compound 363] | < 2000 nM |
| N#C[C@H](C[C@@H]1CCNC1=O)NC(=O)[C@H](CC1CC1)NC(=O)c1cc2c(C3CC3)cccc2[nH]1 [Compound 375A] | < 2000 nM |
| CCOc1cccc2[nH]c(C(=O)N[C@@H](CC(C)C)C(=O)N[C@H](C#N)C[C@@H]3CCNC3=O)cc12 [Compound 377] | < 2000 nM |
| COc1cccc2[nH]c(C(=O)N3C[C@@H]4CCC[C@@H]4[C@H]3C(=O)N[C@H](C#N)C[C@@H]3CCNC3=O)cc12 [Compound 393] | < 2000 nM |
| COc1cccc2[nH]c(C(=O)N3CC4(CC4)C[C@H]3C(=O)N[C@H](C#N)C[C@@H]3CCNC3=O)cc12 [Compound 397] | < 2000 nM |
| COc1cccc2[nH]c(C(=O)N3CC4(CCCC4)C[C@H]3C(=O)N[C@H](C#N)C[C@@H]3CCNC3=O)cc12 [Compound 401, (S)—N—((S)-1-cyano-2-((S)-2-oxopyrrolidin-3-yl)ethyl)-2-(4-methoxy-1H-indole-2-carbonyl)-2-azaspiro[4.4]nonane-3-carboxamide] | < 2000 nM |
| COc1cccc2[nH]c(C(=O)N[C@@H](CC(C)(C)C)C(=O)N[C@H](C#N)C[C@@H]3CCNC3=O)cc12 [Compound 405, N-[(1S)-1-[[(1S)-1-cyano-2-[(3S)-2-oxopyrrolidin-3-yl]ethyl]carbamoyl]-3,3-dimethyl-butyl]-4-methoxy-1H-indole-2-carboxamide] | < 2000 nM |
| COc1cccc2[nH]c(C(=O)N[C@@H](CC3CC3)C(=O)N[C@H](C#N)C[C@@H]3CCCNC3=O)cc12 [Compound 491, N-[(1S)-2-[[(1S)-1-cyano-2-[(3S)-2-oxo-3-piperidyl]ethyl]amino]-1-(cyclopropylmethyl)-2-oxo-ethyl]-4-methoxy-1H-indole-2-carboxamide] | < 2000 nM |
| CC(C)C[C@H](NC(=O)c1cc2c(OC(F)F)cccc2[nH]1)C(=O)N[C@H](C#N)C[C@@H]1CCNC1=O [Compound 509] | < 2000 nM |
| CCNC(C#N)[C@H](C[C@@H]1CCNC1=O)NC(=O)[C@H](CC(C)C)NC(=O)c1cc2c(OC)cccc2[nH]1 (stereo partly drawn) [Compound 511, N-[(1S)-1-[[(1S)-2-cyano-2-(ethylamino)-1-[[(3S)-2-oxopyrrolidin-3-yl]methyl]ethyl]carbamoyl]-3-methyl-butyl]-4-methoxy-1H-indole-2-carboxamide] | < 2000 nM |
| N#C[C@H](C[C@@H]1CCNC1=O)NC(=O)[C@H](CC1CC1)NC(=O)c1cc2cc(Cl)ccc2[nH]1 [Compound 519] | < 2000 nM |
| N#C[C@H](C[C@@H]1CCNC1=O)NC(=O)[C@H](CC1CC1)NC(=O)c1cc2cccc(Cl)c2[nH]1 [Compound 531, 7-chloro-N-[(1S)-2-[[(1S)-1-cyano-2-[(3S)-2-oxopyrrolidin-3-yl]ethyl]amino]-1-(cyclopropylmethyl)-2-oxo-ethyl]-1H-indole-2-carboxamide] | < 2000 nM |
| COc1cccc2[nH]c(C(=O)N[C@@H](CC3CCC3)C(=O)N[C@H](C#N)C[C@@H]3CCNC3=O)cc12 [Compound 577] | < 2000 nM |
| CC(C)C[C@H](NC(=O)/C=C/c1ccc(Cl)cc1F)C(=O)N[C@H](C#N)C[C@@H]1CCNC1=O [Compound 598] | < 2000 nM |
| N#C[C@H](C[C@@H]1CCCNC1=O)NC(=O)[C@H](CC1CC1)NC(=O)c1cc2ccc(Cl)cc2[nH]1 [Compound 635, 6-Chloro-N-[(1S)-2-[[(1S)-1-cyano-2-[(3S)-2-oxo-3-piperidyl]ethyl]amino]-1-(cyclopropylmethyl)-2-oxo-ethyl]-1H-indole-2-carboxamide] | < 2000 nM |
| N#C[C@H](C[C@@H]1CCCNC1=O)NC(=O)[C@H](CC1CC1)NC(=O)c1nc2c(Cl)ccc(Cl)c2[nH]1 [Compound 637, 4,7-dichloro-N-[(1S)-2-[[(1S)-1-cyano-2-[(3S)-2-oxo-3-piperidyl]ethyl]amino]-1-(cyclopropylmethyl)-2-oxo-ethyl]-1H-benzimidazole-2-carboxamide] | < 2000 nM |
| COc1cccc2[nH]c(C(=O)N[C@@H](CC(C)(C)C)C(=O)N[C@H](C#N)C[C@@H]3CCCNC3=O)cc12 [Compound 643, N-[(1S)-1-[[(1S)-1-cyano-2-[(3S)-2-oxo-3-piperidyl]ethyl]carbamoyl]-3,3-dimethyl-butyl]-4-methoxy-1H-indole-2-carboxamide] | < 2000 nM |
| COc1cccc2[nH]c(C(=O)N[C@@H](CC(C)C)C(=O)N[C@@H](C[C@@H]3CCNC3=O)C(C#N)NCC(=O)O)cc12 (stereo partly drawn) [Compound 653] | < 2000 nM |
| N#C[C@H](C[C@@H]1CCNC1=O)NC(=O)[C@H](CC1CC1)NC(=O)c1cc2c([nH]1)CCCC2 [Compound 711] | < 2000 nM |
| N#C[C@H](C[C@@H]1CCCNC1=O)NC(=O)[C@H](CC1CC1)NC(=O)c1cc2c(Cl)nccc2[nH]1 [Compound 715] | < 2000 nM |
